Patent US6372926B1, “17-side chain alkynyl-and 20-oxopregna-derivatives of vitamin D, methods for their production and pharmaceutical compositions thereof” (Research Institute for Medicine and Chemistry, priority 1997, dated 2002)

Experiments:
[1] = system: human breast cancer cells (T47D); settings: Endocrine Society 1994 Abstract No. 1744; cited from earlier work
[2] = target: T1, glutocorticoid receptor (Homo sapiens, UniProt P04150); settings: in contrast to RU 486; literature report; cited from earlier work
T1 sequence (P04150 1-777): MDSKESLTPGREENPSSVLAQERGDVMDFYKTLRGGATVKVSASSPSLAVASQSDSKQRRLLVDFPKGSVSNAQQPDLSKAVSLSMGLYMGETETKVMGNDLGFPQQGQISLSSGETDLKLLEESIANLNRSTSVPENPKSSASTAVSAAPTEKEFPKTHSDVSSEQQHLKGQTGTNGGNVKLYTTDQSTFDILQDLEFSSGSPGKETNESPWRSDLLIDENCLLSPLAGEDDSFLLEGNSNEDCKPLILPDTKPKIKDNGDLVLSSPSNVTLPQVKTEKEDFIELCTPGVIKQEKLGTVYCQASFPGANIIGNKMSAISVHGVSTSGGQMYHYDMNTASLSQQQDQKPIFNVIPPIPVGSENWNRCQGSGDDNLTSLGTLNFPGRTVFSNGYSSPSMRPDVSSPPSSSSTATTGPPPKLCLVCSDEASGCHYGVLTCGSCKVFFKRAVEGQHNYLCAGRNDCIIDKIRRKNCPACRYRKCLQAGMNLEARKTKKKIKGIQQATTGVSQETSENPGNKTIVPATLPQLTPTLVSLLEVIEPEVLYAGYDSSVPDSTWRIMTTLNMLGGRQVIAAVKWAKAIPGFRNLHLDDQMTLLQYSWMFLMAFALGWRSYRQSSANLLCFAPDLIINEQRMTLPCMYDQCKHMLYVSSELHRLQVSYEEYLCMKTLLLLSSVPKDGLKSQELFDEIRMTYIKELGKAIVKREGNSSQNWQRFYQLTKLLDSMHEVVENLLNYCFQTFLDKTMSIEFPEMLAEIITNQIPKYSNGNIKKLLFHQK

[3] = target: T2, progesterone receptor (Homo sapiens, UniProt P06401); settings: as reported by DeLuca and coworkers; cited from earlier work
T2 sequence (P06401 1-933): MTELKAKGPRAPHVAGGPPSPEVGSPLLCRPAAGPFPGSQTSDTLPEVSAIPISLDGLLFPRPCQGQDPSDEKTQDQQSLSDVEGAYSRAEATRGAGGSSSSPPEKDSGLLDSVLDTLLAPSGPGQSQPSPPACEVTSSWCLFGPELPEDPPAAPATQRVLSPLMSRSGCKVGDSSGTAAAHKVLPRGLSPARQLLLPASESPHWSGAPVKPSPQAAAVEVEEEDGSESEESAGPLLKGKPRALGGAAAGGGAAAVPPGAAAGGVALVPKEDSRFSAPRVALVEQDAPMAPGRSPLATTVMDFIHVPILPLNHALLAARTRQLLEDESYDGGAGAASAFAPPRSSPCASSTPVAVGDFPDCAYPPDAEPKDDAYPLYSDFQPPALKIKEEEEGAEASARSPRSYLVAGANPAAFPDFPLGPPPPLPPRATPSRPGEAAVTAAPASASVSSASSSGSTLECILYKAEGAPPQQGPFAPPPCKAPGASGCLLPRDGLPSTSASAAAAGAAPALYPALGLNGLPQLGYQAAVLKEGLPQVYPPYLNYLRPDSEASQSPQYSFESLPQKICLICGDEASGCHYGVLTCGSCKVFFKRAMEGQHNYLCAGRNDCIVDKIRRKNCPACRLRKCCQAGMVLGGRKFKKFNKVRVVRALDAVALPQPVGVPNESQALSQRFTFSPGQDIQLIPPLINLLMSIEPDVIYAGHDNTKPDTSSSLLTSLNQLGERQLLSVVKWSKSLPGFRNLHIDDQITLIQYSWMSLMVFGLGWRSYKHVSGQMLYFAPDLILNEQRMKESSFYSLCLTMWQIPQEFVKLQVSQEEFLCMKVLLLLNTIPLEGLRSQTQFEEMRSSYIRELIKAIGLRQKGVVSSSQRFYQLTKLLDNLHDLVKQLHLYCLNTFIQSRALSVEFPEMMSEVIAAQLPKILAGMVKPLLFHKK

[4] = system: progesterone activity; assay: anti-progesterone activity (applicant's finding); settings: evidenced by antifertility activity, anti-progesterone assay and inhibition of growth of T47D and MCF-7 cell lines; no data given

Row | SMILES | suppression of in vitro growth of human breast cancer cells (T47D) [1] | binding to the glucocorticoid receptor [2] | ability to bind to the progesterone receptor [3] | antagonism of progesterone activity [4]
1 | C=C1CC[C@H](O)C/C1=C/C=C1\CCC[C@@]2(C)[C@@H](C(C)=O)CC[C@H]12 [20-oxopregnacalciferol] | suppress in vitro growth | not to bind |  | 
2 | C=C1C(=CC=C2CCCC3(C)C(C(C)=O)CCC23)CC(O)CC1O (stereo not drawn) [1α-Hydroxy-20-oxopregna-calciferol, 1α,3β-Dihydroxy-20-oxo-9,10-secopregna-5(Z),7,10(19)-triene] |  |  | not to have such binding effect | anti-progestational activity
